{"source": "patent US20100197610A1", "about": "“FRUCTOSE 1, 6 BISPHOSPHATE - A NOVEL ANTICONVULSANT DRUG” (Baylor College of Medicine, priority 2007, published 2010)", "key": {"[1]": {"system": "pilocarpine-induced seizures", "assay": "Pilocarpine model of acute seizures", "type": "in vivo, Sprague Dawley rats", "experimental": "(§1) All animal experiments were carried out in accordance with the National Institutes of Health guide for the care and use of laboratory animals (NIH publication 8023, revised 1996) and with the approval of the local Animal Use Committee. Unless indicated, all chemicals were obtained from Sigma Chemical Co (St. Louis Mo.). Male, Sprague Dawley rats weighing 50-74 g (young) or 147-309 g (adult) were used in this study. Acute seizures were induced by kainic acid (KA; Ocean Produce Int., Canada), pilocarpine or pentylenetetrazole (PTZ) as previously described (Lian et al 2006). These models were chosen because they initiate seizures by different mechanisms and the seizures have a relatively gradual onset compared to seizures initiated by stimulation. There was no difference in the body weight of the animals receiving the different convulsants. For pilocarpine, kainic acid and PTZ, the mean weights were 219±5 g (range 163-275 g), 215±7 g (range 183-258 g), and 216±13 g (range 147-309 g), respectively. The animals in the drug treatment groups were not different in weight from the animals in the control groups.\n(§2) After administration of KA (10 mg/kg, ip), pilocarpine (scopolamine methyl bromide 1 mg/kg, s.c followed 15 min later by 300 mg/kg, ip pilocarpine) or PTZ (50 mg/kg, ip) (Lian et al., 2006), animals were continuously monitored for seizure activity for at least 5 h after KA or pilocarpine and for 30 min after PTZ. Behavioral seizures were scored by an investigator blinded to the treatment. Latency to the first wet dog shake after KA, latency to the first forelimb clonus (after pilocarpine, kainic acid or PTZ) and the score and duration of seizures were measured. When at least 1 hour had passed without any head bobbing (for pilocarpine) or any wet dog shakes (for KA), seizures were considered over. Status epilepticus lasting longer than 4 hours (for KA) or 5 hours (for pilocarpine) were assigned 4 and 5 hours for seizure duration. For animals receiving PTZ, the seizure duration was defined as the period of tonic-clonic seizures. EEG recording in the hippocampus was conducted as previously described (Lian et al., 2004). After anesthesia, a recording electrode was placed in a burr hole centered at 3.0 mm posterior to bregma, 1.8 mm lateral to the midline and then lowered 3.0 mm. A ground screw and wire was placed over the frontal region in another burr hole. This assembly was fixed to the skull with dental cement.\n(§3) Each animal was assigned the score of the most severe seizure observed. The behavioral seizures induced by KA or pilocarpine were scored according to an adjusted version of the scale of Racine (Bough et al., 2002): stage 1, wet dog shakes after KA or trembling after pilocarpine; stage 2, head bobbing and stereotypes; stage 3, unilateral forelimb clonus; stage 4, bilateral forelimb clonus; stage 5, rearing and falling; stage 6, jumping and/or running followed by falling. Death within 24 h was assigned stage 7.\n(§4) Adult rats received either D-F1,6BP, sodium valproate (VPA, 0.3 g/kg), 2-DG (0.25, 0.5 g/kg) or normal saline (vehicle) intraperitoneally followed 1 h later by one of the convulsants. The dose for VPA was based on experimental evidence that doses from 0.1 to 0.4 g/kg (ip) are effective in animal models (Bough and Eagles, 2001; Manent et al., 2007). Three doses of F1,6BP (0.25, 0.5 and 1 g/kg) were tested with this dosing schedule. Two additional groups were administered F1,6BP (0.5 or 1 g/kg, n=5) after pilocarpine. In this experiment, the F1,6BP was given intraperitoneally at the first behavioral seizure, which was chewing movements of the jaw. Two additional sets of animals were fed the classic ketogenic diet (No. F3666; Bio-Serv, Frenchtown, N.J.). One set of animals was given the diet beginning on postnatal day 22-26 (KD-Yng) and maintained on this diet for 4 weeks. Thus the seizures were tested in this group when the animals had reached approximately the same age (50-54 days) as the majority of the animals tested. […]"}, "[2]": {"system": "kainic acid-induced seizures", "assay": "Kainic acid model of acute seizures", "type": "in vivo, Sprague Dawley rats", "experimental": "as §1, §2, §3, §4"}, "[3]": {"system": "PTZ-induced generalized tonic-clonic seizures", "assay": "PTZ model of acute seizures", "type": "in vivo, Sprague Dawley rats", "experimental": "as §1, §2\nAdult rats received either D-F1,6BP, sodium valproate (VPA, 0.3 g/kg), 2-DG (0.25, 0.5 g/kg) or normal saline (vehicle) intraperitoneally followed 1 h later by one of the convulsants. The dose for VPA was based on experimental evidence that doses from 0.1 to 0.4 g/kg (ip) are effective in animal models (Bough and Eagles, 2001; Manent et al., 2007). Three doses of F1,6BP (0.25, 0.5 and 1 g/kg) were tested with this dosing schedule. Two additional groups were administered F1,6BP (0.5 or 1 g/kg, n=5) after pilocarpine. In this experiment, the F1,6BP was given intraperitoneally at the first behavioral seizure, which was chewing movements of the jaw. Two additional sets of animals were fed the classic ketogenic diet (No. F3666; Bio-Serv, Frenchtown, N.J.). One set of animals was given the diet beginning on postnatal day 22-26 (KD-Yng) and maintained on this diet for 4 weeks. Thus the seizures were tested in this group when the animals had reached approximately the same age (50-54 days) as the majority of the animals tested.\nThe latency to seizure onset, seizure score and seizure duration were averaged across animals in each group. Comparisons between groups were done with an analysis of variance with Bonferroni post hoc test. Statistical difference was defined as p<0.05."}, "[4]": {"system": "memory consolidation", "details": "subcutaneous 0.3 μmol, chick (Gibbs and Summers, 2002); cited from earlier work"}, "[5]": {"details": "2-DG 0.25 and 0.5 g/kg, n=5 each"}, "[6]": {"details": "VPA 0.3 g/kg ip pretreatment, n=9"}}}
{"smiles": "O=CC[C@@H](O)[C@H](O)[C@H](O)CO", "note": "[2-DG, 2-deoxyglucose, reference compound]", "values": [{"measurement": "animals with a stage 3 seizure", "setting": "[1]; 2-DG 0.25 g/kg, n=6", "result": "only one animal"}, {"measurement": "seizure duration", "setting": "[1]; pretreatment with 2-DG", "result": "decreasing"}, {"measurement": "seizure score", "setting": "[1]; pretreatment with 2-DG", "result": "decreasing"}, {"measurement": "appearance of the first wet dog shake", "setting": "[2]; 2-DG 0.25 g/kg, n=6", "result": "delayed"}, {"measurement": "effect on the other seizure parameters", "setting": "[2]; 2-DG 0.25 g/kg, n=6", "result": "no effect"}, {"measurement": "anticonvulsant activity", "setting": "[2]; 2-DG 0.5 g/kg, n=3", "result": "no additional activity"}, {"measurement": "animals that had seizures", "setting": "[3]; [5]", "result": "All animals"}, {"measurement": "seizure latency", "setting": "[3]; [5]", "result": "not increased"}, {"measurement": "seizure duration", "setting": "[3]; 2-DG 0.25 g/kg", "result": "significantly shortened"}, {"measurement": "effect on memory consolidation", "setting": "[4]", "result": "inhibit memory consolidation"}]}
{"smiles": "CCCC(CCC)C(=O)[O-].[Na+]", "note": "[VPA, sodium valproate, reference compound]", "values": [{"measurement": "animals with forelimb clonus", "setting": "[1]; VPA 0.3 g/kg ip pretreatment", "result": "6 out of 9"}, {"measurement": "animals that died", "setting": "[1]; [6]", "result": "one died"}, {"measurement": "mean seizure score", "setting": "[1]; [6]", "result": "significantly reduced"}, {"measurement": "seizure duration", "setting": "[1]; [6]", "result": "significantly reduced"}, {"measurement": "appearance of forelimb clonus", "setting": "[2]; VPA 0.3 g/kg ip, n=6", "result": "but not the appearance of forelimb clonus"}, {"measurement": "appearance of wet dog shakes", "setting": "[2]; VPA 0.3 g/kg ip, n=6", "result": "significantly delayed"}, {"measurement": "duration of seizures", "setting": "[2]; VPA 0.3 g/kg ip, n=6", "result": "decreased"}, {"measurement": "seizure score", "setting": "[2]; VPA 0.3 g/kg ip, n=6", "result": "4.5±0.2"}, {"measurement": "seizure duration", "setting": "[3]; VPA 0.3 g/kg", "result": "9 ± 4", "unit": "s"}, {"measurement": "animals with no generalized tonic-clonic seizures", "setting": "[3]; VPA 0.3 g/kg, n=8", "result": "two animals"}, {"measurement": "seizure latency", "setting": "[3]; VPA 0.3 g/kg, the six animals with seizures", "result": "185 ± 27", "unit": "s"}]}
